| Structure (SMILES) | melting point |
| --- | --- |
| Cc1nc(-c2cccc(S(=O)(=O)Cl)c2)no1 | 67 to 69 °C |
| COC(OC)c1ccc(C#N)c(S)n1 | 137 to 139 °C |
| CCOC1OC2C(CO)OC(n3cnc4c(N)ncnc43)C2O1 (stereo not drawn) | 228 to 231 °C |
| CC(=O)NC(Cc1ccc2c(c1)OCO2)C(=O)O (stereo not drawn) | 92 °C |
| COc1ccc(-c2c(C(=O)O)sc(SC)c2C#N)cc1 | 209 to 214 °C |
| CC(C)(C)OC(=O)N[C@@H](Cc1c[nH]c2ccccc12)C(=O)O | 134 to 139 °C |
| CS(=O)(=O)c1ccccc1S(=O)(=O)Cl | 133 to 138 °C |
| CCOC(=O)C(C)C(=O)CC(O)CC1CC=C(C)C1(C)C (stereo not drawn) | 132 °C |
| Cc1noc(-c2ccccc2CBr)n1 | 64 to 67 °C |
| CCCCCCCS | -43 °C |
| O=[N+]([O-])c1ccc(SCl)c([N+](=O)[O-])c1 | 99 °C |
| O=C(Cl)OCC(Cl)(Cl)Cl | 1 °C |
| Cc1ccc(S(=O)(=O)CC(=O)c2ccccc2)cc1 | 109 to 110 °C |
| COC1(C)CC(c2ccccc2)c2c(c3ccccc3oc2=O)O1 (stereo not drawn) | 166 °C |
| Cc1oc(-c2ccc(Cl)cc2)cc1C(=O)Cl | 122 to 124 °C |
| CC1(C)C(=O)N(O)C(C)(C)C(=O)N1O | 300 to 303 °C |
| Nc1ccc(S(=O)(=O)NCCO)cc1 | 97 to 99 °C |
| CC(C)CC1(NC(=O)c2ccccc2)COCOC1=O (racemic) | 100 to 102 °C |
| CC(=O)Nc1ccc(OC(=O)c2ccccc2O)cc1 | 187 °C |
| Nc1ncc(S(=O)(=O)c2ccc([N+](=O)[O-])cc2)s1 | 222 to 226 °C |
| CC1(C)CC(N)CC(C)(CN)C1 (stereo not drawn) | 10 °C |
| CNC(=O)c1cccnc1 | 104 °C |

| Structure (SMILES) | melting point |
| --- | --- |
| CC(C)CCCC(C)C1CCC2C3CC=C4CC(OC(=O)Cl)CCC4(C)C3CCC12C (stereo not drawn) | 118 °C |
| Nc1c(F)cc(Br)cc1F | 67 to 68 °C |
| CCOC(=O)[C@H]1CCC(=O)N1 | 49 to 53 °C |
| O=[N+]([O-])c1ccc(CSc2ncnc3c2ncn3C2OC(CO)C(O)C2O)cc1 (stereo not drawn) | 194 to 196 °C |
| NCC(O)C(=O)O (stereo not drawn) | 235 °C |
| NC(=O)N(CCO)N=Cc1ccc([N+](=O)[O-])o1 | 214 °C |
| O=[N+]([O-])c1ccccc1OCCOc1ccccc1[N+](=O)[O-] | 169 °C |
| N#CC(C#N)=Cc1ccco1 | 70 to 74 °C |
| O=C(O)c1cc2cccnc2nc1C(F)(F)F | 309 to 310 °C |
| O=C(c1ccc(OCc2ccccc2)cc1)c1cn(C(=O)c2ccc(OCc3ccccc3)cc2)c2ccccc12 | 181 °C |
| CC(=O)OC1C(O)C2=C(C(=O)C(OC(C)=O)C3(CC3C)C2=O)C2(C)CCC(OC(C)=O)C(C)(C)C12 (stereo not drawn) | 116 to 117 °C |
| COc1cc(C(=O)NCc2ccc(OCCN(C)C)cc2)cc(OC)c1OC | 189 °C |
| O=C(Cl)c1ccc(-c2ccccc2)cc1 | 113 °C |
| N#Cc1ccc(-n2ccnc2)cc1 | 151 to 153 °C |
| CC12CCC(O)CC1=CCC1C2CCC2(C)C1CCC2(C)O (stereo not drawn) | 206 °C |
| COc1cc(OC)nc(Oc2cccc(Oc3nc(OC)cc(OC)n3)c2C(=O)ON=C(c2ccccc2)c2ccccc2)n1 | 129 °C |
| Cn1nc(-c2cccs2)cc1C(=O)Cl | 113 to 114 °C |
| OCc1cc(O)cc(O)c1 | 181 to 186 °C |
| O=C(Nc1cccnc1Cl)c1ccc(Cl)cc1Cl | 148 to 150 °C |
| O=c1[nH]c2ccc([N+](=O)[O-])cc2[nH]1 | 314 to 317 °C |
| CCCCCCCCCCCCCCCCOc1ccc(N)cc1 | 60 °C |
| CC1CCC(C(C)C)C(OC(=O)C(Cc2ccccc2)c2ccccc2)C1 (stereo not drawn) | 101 °C |

| Structure (SMILES) | melting point |
| --- | --- |
| CN(c1c(F)c(F)c(-c2c(F)c(F)c(F)c(F)c2F)c(F)c1F)[N+](=O)[O-] | 140 °C |
| COc1ccc2c(c1)CC(c1ccc([N+](=O)[O-])cc1)OC2=O (stereo not drawn) | 176 °C |
| C1CCC2C(C1)CCC1C3CCCCC3CCC21 (stereo not drawn) | 115 °C |
| CCCCc1ccc(O)cc1 | 22 °C |
| Cn1c(S)nnc1-c1ccccc1 | 188 °C |
| Cn1ccc2cc(Br)ccc21 | 43 to 44 °C |
| COC(=O)c1c(OC)ccc(OC)c1C(=O)OC | 101 °C |
| O=C(CCl)Nc1ccc(F)cc1 | 131 to 132 °C |
| O=C1C=C(O)CC(c2ccccc2)C1 (stereo not drawn) | 187 °C |
| CN(N=O)C(N)=O | 121 °C |
| O=C(O)[C@@H]1Cc2ccccc2CN1C(=O)OCc1ccccc1 | 137 to 141 °C |
| CCCOC(=O)C1=C(C)NC(C)=C(C(=O)OCCC)C1c1cccc(OC)c1O | 166 to 168 °C |
| Cc1cc(Br)c(O)c2c1CCC2 | 60 to 62 °C |
| O=c1[nH]c2scc(-c3ccccc3)c2c(=O)n1-c1cccc(C(F)(F)F)c1 | 231 to 233 °C |
| CN(C)c1ccc(C=C2C(=O)OC(C)(C)OC2=O)cc1 | 162 °C |
| CC(C)=NNc1ccccc1 | 42 °C |
| CC(c1ncncc1F)C(O)(Cn1cncn1)c1ccc(F)cc1F (stereo not drawn) | 128 °C |
| CCCCCCCCCCCCOC(C)=O | 1.3 °C |
| CC(=O)c1cccc(-c2ccccc2)c1 | 36 °C |
| COC=CC(=O)OC | 3 to 4 °C |
| NC(Cc1c[nH]c2ccc(F)cc12)C(=O)O (racemic) | 238 to 239 °C |

The next lines start with the values.

| melting point | Structure (SMILES) |
| --- | --- |
| 43 °C | Cc1ccncc1C#N |
| 134 °C | NS(=O)(=O)c1ccc(S(=O)(=O)CCCCO)c(F)c1 |
| 257 °C | Cc1ccc(C(O)C2C(=O)N(c3ccccc3)N=C2C(F)(F)F)cc1 (stereo not drawn) |
| -49.5 °C | CCCCCC=CCC=CCC=CCC=CCCCC(=O)O |
| 77 °C | COc1ccc(Cl)cc1C=O |
| 187 to 190 °C | COC(=O)c1ccc(C(=O)O)nc1 |
| 146 to 149 °C | O=C1CCCc2c1c1c3c(ccc4c3c2CCC4)CCC1 |
| 128 to 130 °C | CCC(=O)c1ccc(O)c(C)c1O |
| 153 to 156 °C | N#CC1CN(C(c2ccccc2)c2ccccc2)C1 |
| 69 to 75 °C | CC(=O)Oc1ccc([N+](=O)[O-])cc1[N+](=O)[O-] |
| 139 °C | O=C(O)C=Cc1cc(F)ccc1F |
| -34 °C | Fc1ccccc1F |
| -9 °C | C1=CCCCCCCCCCC1 |
| 119 °C | OCC1(O)OCC(O)C(O)C1O (stereo not drawn) |
| 47 °C | C[Si](C)(C)C#CC1(O)Cc2ccccc21 (stereo not drawn) |
| 209 to 210 °C | COc1cc2nnc(/C=C/C(C)=O)c(-c3ccc(C)o3)c2cc1OC |
| 250 to 253 °C | CC(=O)Nc1ccc(C2=NNC(=O)CC2)cc1 |
| 153 to 155 °C | S=c1ssc(S)c1-c1ccccc1 |
| 101 to 102 °C | O=Cc1ccc(-c2ccsc2)cc1 |
| 146 to 147 °C | O=C(O)CCC(=O)c1ccc(Br)cc1 |
| -57 °C | BrCCC1CCCCC1 |

| melting point | Structure (SMILES) |
| --- | --- |
| 71.5 °C | C=C(C)C1CC=C(C)C(=NO)C1 (stereo not drawn) |
| 201 °C | CC12CCC(=O)CC1CCC1C2CCC2(C)C1CCC21OCCS1 (stereo not drawn) |
| 283 °C | Nc1nn2c(C(F)(F)F)cc(=O)[nH]c2c1/N=N/c1ccccc1 |
| 185 to 186 °C | COC(=O)CCC(C)C1CCC2C3C(OC(C)=O)CC4CC(OC(C)=O)CCC4(C)C3CCC12C (stereo not drawn) |
| 95.5 °C | CC(C)CNC(=O)N1CCNC1=O |
| 166 to 167 °C | CCCCCOC(=O)C1=C(C)NC(=O)NC1c1ccco1 (stereo not drawn) |
| 7 °C | CCCCCCCCCCCCCCS |
| 207 °C | CC12CCC(C3(CCC(=O)O3)C1=O)C2(C)C (stereo not drawn) |
| 122 °C | CC(C)=CCCC(C)C1CCC2C3CC=C4CC(O)CCC4(C)C3CCC12C (stereo not drawn) |
| 57 to 63 °C | CC(C)(C)OC(=O)N1OC1c1ccc(C#N)cc1 (stereo not drawn) |
| 23 °C | CCCCCCCCCCC=CCCCCCCCC(=O)O |
| 195 to 197 °C | Brc1ccc2[nH]c3ccccc3c2c1 |
| 200 to 202 °C | Cc1ccc(C2C(C#N)=C(N)N3C(=C2C#N)Sc2ccccc23)cc1 (stereo not drawn) |
| 233 °C | CC(C)CC(NC(=O)C(O)C(N)Cc1ccccc1)C(=O)O (stereo not drawn) |
| 77 °C | CC[N+](CC)(CC)S(=O)(=O)[N-]C(=O)OC |
| 111 to 113 °C | CCOC(=O)c1c(C)nsc1N |
| 80 to 87 °C | C#Cc1ccc(-c2ccccc2)cc1 |
| 90 to 93 °C | Cc1ccc(S(=O)(=O)OCCCOS(=O)(=O)c2ccc(C)cc2)cc1 |
| 48 °C | O=S(=O)(Cl)c1c(Cl)cc(C(F)(F)F)cc1Cl |
| 290 to 293 °C | Cc1ccc2[nH]c(S)nc2c1 |
| 275 °C | N#Cc1c2ncccc2c(=O)n2c1sc1ccccc12 |

| melting point | Structure (SMILES) |
| --- | --- |
| 105 to 106 °C | CC(=O)c1ccc(C=O)s1 |
| 69 to 71 °C | COc1ccc(C2NCCc3sccc32)cc1 (stereo not drawn) |
| 160 °C | O=C(O)c1cc(Br)ccc1Cl |
| 235 °C | O=C(O)[C@H]1NCC[C@@H]1O |
| 120 °C | O=C(c1ccc2ccccc2c1)c1noc(-c2ccc3ccccc3c2)c1S(=O)(=O)c1ccccc1 |
| 208 to 209 °C | Cc1ccc(C(=O)O)cc1Cl |
| 194 °C | NC(=O)C1(N2C(=O)c3cccc(Cl)c3C2=O)CCCCC1 |
| 157 to 159 °C | CCOC(=O)C(C)=P(c1ccccc1)(c1ccccc1)c1ccccc1 |
| 7 °C | BrC=Cc1ccccc1 |
| 169 °C | CN(C(=O)C(C(F)(F)F)C(F)(F)F)C1CCCCC1 |
| 159 °C | NC(=O)N1C(=O)C=CC1=O |
| 112 to 115 °C | CCOC(=O)C(N)=O |
| -6 °C | CCNCCO |
| 134 °C | CCCCCCCCCCCCCCCCCC(=O)Nc1ccc(O)cc1 |
| 136 to 139 °C | CCCSc1sc(C(=O)OCC)c2c1C(=O)CCC2 |
| 45 to 47 °C | COc1cccc(OC)c1N=C=O |
| 136 to 139 °C | CC(C)(C)OC(=O)N[C@@H](CO)c1ccccc1 |
| 166 °C | COc1ccc(-c2nnc3n2NC(c2ccccc2OC)S3)cc1 (stereo not drawn) |
| 250 to 292 °C | O=C(O)C1CNC1 |
| 114 to 116 °C | Cc1noc(-c2ccc(CBr)cc2)n1 |
| 171 °C | CC(=O)Nc1cc([N+](=O)[O-])c(/C=C/c2ccccc2)c([N+](=O)[O-])c1/C=C/c1ccccc1 |

Reference: a melting point compilation (Tetko et al.)
